Assay results reported in paper PMC8012336, “An automated and high-throughput-screening compatible pluripotent stem cell-based test platform for developmental and reproductive toxicity assessment of small molecule compounds” (Cell Biology and Toxicology, 2020).
Values after ≈ are worked out from the molar mass of the structure shown. Like-named read-outs stand apart in the source and are kept apart here.

Experiments:
[1] = test system: mESC-D3 and NIH/3T3 cells; conditions: for Compound classification (Seiler and Spielmann [2011]): automated mouse EST assay; for Compound classification: manual murine EST assay, prediction model of Seiler and Spielmann 2011
[2] = test system: mESC-D3; assay: Conventional mouse ES-D3 differentiation assay in hanging drop format (petri dish; cardiomyocyte contraction, day 10); type: cell-based; conditions: manual; beating cardiomyocytes at day 10; in brackets the two individual experiments
Procedure: Separate Petri dishes were used for each concentration of test compound, untreated control, and solvent control. […] The EB suspension was incubated for 2 days. On day five of the assay, a fresh compound dilution series was prepared in media and transferred into 24-well cell culture plates (1 ml/well, Greiner bio-one, Cat. No. 662641). A separate 24-well plate was used for each compound concentration, untreated control, and solvent control (24 wells per condition). One EB was transferred from the Petri dish into each well of the 24-well plate. After further 5 days of incubation (= day 10 of the assay), cardiomyocyte contraction was determined in each well under the light microscope.

[3] = test system: mESC-D3; assay: Automated mESC-D3 differentiation assay in 96-well round-bottom ultra-low attachment plates (cardiomyocyte contraction, day 10); type: cell-based, mouse; conditions: beating cardiomyocytes at day 10, in brackets the two independent runs
Procedure: The mESC-D3 differentiation assay was automated in 96-well round-bottom ultra-low attachment plates (Costar, Cat. No. 7007) on the lab automation platform Fluent (Tecan). The method was set up for testing up to three different compounds in an automated procedure, resulting in maximal 9 plates that were being processed. A 7-point dilution series of test compounds and control solutions were prepared in PBS or DMSO under the laminar flow, transferred to a 96-well 0.5 ml Masterblock plate, and placed on the Fluent worktable. There the compounds were further diluted in growth media in a 96-well 2 ml Masterblock plate using the FCA. Of the compound solution, 10 μl/well were dispensed into a 96-well round well ultra-low attachment plate. In the meantime, a suspension of mESC-D3 (3.75 × 10^4 cells/ ml) was prepared in growth media and was placed in a trough on the worktable. The cell suspension was transferred into the 96-well round-bottom ultra-low attachment plate (40 μl/well) using the FCA. After 2 days of incubation at 37 °C, 5% CO2, and 95% humidity fresh compound and control solutions were prepared and added to the 96-well U-bottom plate (200 μl/well). On day five of the assay freshly prepared compound and control solutions were dispensed into a 96-well imaging plate (200 μl/well, Greiner bio-one, Cat. No. 655866). Using the MCA, the supernatant was aspirated from the 96-well round-bottom ultra-low attachment plate, the EB at the bottom of the well was aspirated and transferred into the prefilled imaging plate. On day 7, the cell supernatant was partially replaced with a fresh compound solution. Therefore, the media was aspirated using the MCA and the fresh compound solution was dispensed with the FCA. After further 3 days of incubation (= day 10 of the assay) cardiomyocyte contraction was determined in each well under the light microscope. Afterward, cells were stained and analyzed using the Opera High Content Screening System (PerkinElmer).
Toxicity data from the MTT and CellTiter-Glo Assay was normalized against the vehicle control (100% viability) and plotted against the logarithmic compound concentration.

[4] = test system: mESC-D3; type: cell-based, mouse; conditions: for ID50 FACS (MHC-positive cells): flow cytometry, day 7
Procedure: As an alternative to the morphological analysis at day 10, differentiation can be analyzed at day 7 of the assay by flow cytometry using the molecular flow EST (Buesen et al. [2009]). Previously, staining of cardiomyocytes was performed using an unconjugated primary monoclonal antibody directed against the sarcomeric MHC (clone MF20), followed by binding of a secondary biotin-conjugated goat anti-mouse IgG antibody which is then detected with the fluorochrome PE-SA (phycoerythrin-conjugated streptavidin) (Seiler and Spielmann [2011]). […] Of note, these experiments were performed in parallel with the same batch of spontaneously differentiated mESCs.
Embryoid bodies were formed in hanging drops (Petri dish) as already described. On day 5 of the assay, the EBs were transferred into a larger Petri dish and incubated for two more days at 37 °C, 5% CO2, and 95% humidity. Afterward, the EBs were dissociated using the Embryoid Body Dissociation Kit (Miltenyi Biotec, Cat. No. 130-096-348). EBs from two Petri dishes were harvested in one 15 ml tube and washed once with 10 ml PBS. The supernatant was discarded after centrifugation and a pre-warmed enzyme mix was added. The EB/enzyme mix was incubated for 10 min at 37 °C, dissociated for 1 min with a 1000 μl pipette, incubated for 5 min and mechanically dissociated again for 1 min. After the addition of 3 ml PBS, the cell suspension was passed through a 70-μm filter into a new 15-ml tube. The filter was then washed with 3 ml PBS and discarded afterward. The cell suspension was centrifuged for 5 min at 300 rpm. The supernatant was discarded afterward, cells were suspended in PBS and counted. For viability staining, 10^6 cells were suspended in 100 μl staining reagent (LIVE/DEAD™ Fixable Green Dead Stain Kit, Life Technologies, Cat. No. L34969), incubated for 30 min at 4 °C and washed with 1 ml PBS. For fixation, cells were suspended in 100 μl fixation buffer (BioLegend, Cat. No. 420801) and incubated 20 min at room temperature. For the intracellular staining, cells were washed twice with 1 ml permeabilization buffer (BioLegend, Cat. No. 421002) and suspended in 50 μl permeabilization buffer supplemented with 50 μl of pre-diluted (1:5) antibody (mouse IgG2B anti-human Myosin Heavy Chain APC-conjugated, mouse IgG2B APC-conjugated isotype control, R&D Systems, Cat. No. IC4470A). After 1 h incubation at room temperature cells were washed twice with 1 ml permeabilization buffer and suspended in FACS buffer. Within 2–3 h samples were measured on an LSR II flow cytometer (Beckton Dickinson). Data analysis was done using FlowJo software (Version 10.0.8; Tree Star).

[5] = test system: mESC-D3; parameters: method as in Scholz et al. [1999]; conditions: ZEBET value, 7 d result; ref Scholz et al. [1999]; cited from earlier work
[6] = test system: mESC-D3; parameters: method as in Scholz et al. [1999]; conditions: ZEBET value printed beside hanging drop differentiation result; ref Scholz et al. [1999]; cited from earlier work
[7] = test system: NIH/3T3; parameters: method as in Scholz et al. [1999]; conditions: ZEBET value, 7 d result; ref Scholz et al. [1999]; cited from earlier work

| Compound | Compound classification (Seiler and Spielmann [2011]) [1] | Compound classification [1] | Differentiation assay in hanging drop (petri dish) ID50 mESC-D3 [2] | Differentiation assay in round bottom ULA microplate ID50 mESC-D3 [3] | Differentiation assay in round bottom ULA microplate ID50 mESC-D3 ([3]; listed as hydroxyurea) [µg/mL] | ID50 FACS (MHC-positive cells) [4] [µg/mL] | MHC-positive cells ([4]; treated with 10 μg/ml, untreated 31% (hydroxyurea), 26% (fumonisine B1)) [%] | IC50 mESC-D3 (ZEBET) [5] [µg/mL] | ID50 mESC-D3 (ZEBET) [6] [µg/mL] | IC50 NIH/3T3 (ZEBET) [7] [µg/mL] | Differentiation assay in round bottom ULA microplate ID50 mESC-D3 ([3]; listed as saccharin) [µg/mL] | MHC-positive cells ([4]; treated with 1000 μg/ml, untreated 25%) [%] |
| --- | --- | --- | --- | --- | --- | --- | --- | --- | --- | --- | --- | --- |
| NC(=O)NO [Hydroxyurea, hydroxyurea] | Strong embryotoxicity | strong embryotoxicity | 2.55 (2.56; 2.54) µg/ml | 2.69 (2.86; 2.52) μg/ml | 2.69 | 5.65 (≈ 74.3 µM) | 4 | 2.0 (≈ 26.3 µM) | 1.7 (≈ 22.4 µM) | 7.2 (≈ 94.7 µM) |  |  |
| O=C1NS(=O)(=O)c2ccccc21 [Saccharin, saccharin] | No embryotoxicity | no embryotoxicity | 1000 (> 1000; > 1000) µg/ml | > 1000 (> 1000; > 1000) μg/ml |  | > 1000 |  | 3498 (≈ 19100 µM) | 2000 (≈ 10900 µM) | 3000 (≈ 16400 µM) | > 1000 | 19 |
